Source: ChEMBL document CHEMBL5518220, “The Discovery of 7-Isopropoxy-2-(1-methyl-2-oxabicyclo[2.1.1]hexan-4-yl)-N-(6-methylpyrazolo[1,5-a]pyrimidin-3-yl)imidazo[1,2-a]pyrimidine-6-carboxamide (BIO-7488), a Potent, Selective, and CNS-Penetrant IRAK4 Inhibitor for the Treatment of Ischemic Stroke” (J Med Chem, 2024)

Columns and labels:
[1] = Metabolic stability in human liver microsomes assessed as intrinsic clearance; type: ADME, Microsome; settings: read-out: CLH
[2] = Metabolic stability in rat liver microsomes assessed as intrinsic clearance; type: ADME, Microsome; settings: read-out: CLH
MDR1 (P-gp) = assay: Efflux ratio of apparent permeability across basolateral to apical side over apical to basolateral side in MDCK-MDR1 cells at 1 uM incubated for 120 mins by LC-MS/MS analysis; type: ADME, cell-based, Canis lupus familiaris; settings: dog
[3] = Unbound brain-to-plasma concentration ratio in iv dosed rat measured at 4 to 24 hrs by LC-MS/MS analysis; type: ADME, organism-based; settings: brain and plasma, time 4-24 hrs, read-out: K(p,uu,brain)
[4] = Drug metabolism in human liver microsomes assessed as oxidative metabolism at methyl-THF moiety at 10 uM incubated for 60 mins by LC-MS/MS analysis; type: ADME, Microsome; settings: 1 h
[5] = Drug metabolism in male Sprague-Dawley rat liver microsomes assessed as oxidative metabolism at methyl-THF moiety at 10 uM incubated for 60 mins by LC-MS/MS analysis; type: ADME, Microsome; settings: 1 h
[6] = target: T1, Interleukin-1 receptor-associated kinase 4 (Homo sapiens, UniProt Q9NWZ3)
T1 sequence (Q9NWZ3 whole entry): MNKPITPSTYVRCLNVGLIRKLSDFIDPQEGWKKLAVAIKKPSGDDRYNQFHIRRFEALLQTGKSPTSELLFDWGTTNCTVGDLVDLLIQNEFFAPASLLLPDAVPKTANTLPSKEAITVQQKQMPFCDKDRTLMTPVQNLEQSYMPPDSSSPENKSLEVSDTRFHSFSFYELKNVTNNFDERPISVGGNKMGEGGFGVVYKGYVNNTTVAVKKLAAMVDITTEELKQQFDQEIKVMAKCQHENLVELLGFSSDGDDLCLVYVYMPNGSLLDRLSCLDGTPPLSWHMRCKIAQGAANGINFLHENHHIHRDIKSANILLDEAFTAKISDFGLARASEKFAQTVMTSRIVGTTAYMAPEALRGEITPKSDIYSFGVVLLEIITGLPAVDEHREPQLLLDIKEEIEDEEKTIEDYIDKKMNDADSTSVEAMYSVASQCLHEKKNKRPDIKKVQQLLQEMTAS

[7] = Metabolic stability in human hepatocytes assessed as intrinsic clearance; type: ADME, cell-based, Hepatocyte; settings: read-out: CLH
[8] = Clearance in rat at 1 mg/kg, iv by LC-MS/MS analysis; type: ADME, organism-based; settings: in vivo
[9] = Unbound clearance in rat at 1 mg/kg, iv by LC-MS/MS analysis; type: ADME, organism-based; settings: in vivo
Mus musculus [10] = assay: Inhibition of LPS-induced IL-1beta production in po dosed female C57BL/6 mouse assessed as reduction in IL-1beta level in plasma administered via oral gavage for 60 mins followed by LPS stimulation at 0.5 mg/kg, ip measured after 90 mins by ELISA; type: functional, organism-based
Mus musculus [11] = assay: Inhibition of LPS-induced TNF-alpha production in po dosed female C57BL/6 mouse assessed as reduction in TNF-alpha level in plasma administered via oral gavage for 60 mins followed by LPS stimulation at 0.5 mg/kg, ip measured after 90 mins by ELISA; type: functional, organism-based
Mus musculus [12] = assay: Inhibition of LPS-induced IL-6 production in po dosed female C57BL/6 mouse assessed as reduction in IL-6 level in plasma administered via oral gavage for 60 mins followed by LPS stimulation at 0.5 mg/kg, ip measured after 90 mins by ELISA; type: functional, organism-based
[13] = Inhibition of […] induced IL-1beta production in human whole blood preincubated for 1 hr followed by R848 stimulation and measured after 4 hrs by MSD assay; type: functional, tissue-based
[14] = Lipophilicity, logD of compound in n-octanol and aqueous buffer at pH 7.4 by RP-HPLC method; type: physicochemical
[15] = target: T2, Dual specificity mitogen-activated protein kinase kinase 5 (Homo sapiens) (UniProt Q13163); assay: Binding affinity to MEK5 (unknown origin) at 100 to 1000 nM relative to control; settings: dose 100-1000 nM
T2 sequence (whole entry): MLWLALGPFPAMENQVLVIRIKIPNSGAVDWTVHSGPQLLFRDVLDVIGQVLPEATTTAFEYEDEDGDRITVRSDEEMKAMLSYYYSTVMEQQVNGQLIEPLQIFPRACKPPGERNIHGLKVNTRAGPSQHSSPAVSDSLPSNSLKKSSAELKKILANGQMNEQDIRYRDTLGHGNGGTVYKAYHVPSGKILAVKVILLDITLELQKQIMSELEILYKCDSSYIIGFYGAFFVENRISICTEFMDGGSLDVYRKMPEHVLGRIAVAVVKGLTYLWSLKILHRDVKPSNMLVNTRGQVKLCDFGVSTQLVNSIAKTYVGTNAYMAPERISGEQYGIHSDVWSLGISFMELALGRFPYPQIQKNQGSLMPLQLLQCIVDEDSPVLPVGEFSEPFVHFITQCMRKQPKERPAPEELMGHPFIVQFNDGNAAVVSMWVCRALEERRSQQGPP

[16] = AUCinfinity in rat at 1 mg/kg, iv by LC-MS/MS analysis; type: ADME, organism-based; settings: in vivo
[17] = Volume of distribution at steady state in rat at 1 mg/kg, iv by LC-MS/MS analysis; type: ADME, organism-based; settings: in vivo, read-out: Vdss
[18] = Half life in rat at 1 mg/kg, iv by LC-MS/MS analysis; type: ADME, organism-based; settings: in vivo
[19] = Tmax in rat at 1 mg/kg, po by LC-MS/MS analysis; type: ADME, organism-based; settings: in vivo
[20] = Oral bioavailability in rat at 1 mg/kg by LC-MS/MS analysis; type: ADME, organism-based; settings: in vivo
[21] = AUCinfinity in mouse at 1 mg/kg, iv by LC-MS/MS analysis; type: ADME, organism-based; settings: in vivo
[22] = Clearance in mouse at 1 mg/kg, iv by LC-MS/MS analysis; type: ADME, organism-based; settings: in vivo
[23] = Unbound clearance in mouse at 1 mg/kg, iv by LC-MS/MS analysis; type: ADME, organism-based; settings: in vivo
[24] = Volume of distribution at steady state in mouse at 1 mg/kg, iv by LC-MS/MS analysis; type: ADME, organism-based; settings: in vivo, read-out: Vdss
[25] = Half life in mouse at 1 mg/kg, iv by LC-MS/MS analysis; type: ADME, organism-based; settings: in vivo
[26] = Tmax in mouse at 1 mg/kg, po by LC-MS/MS analysis; type: ADME, organism-based; settings: in vivo
[27] = Oral bioavailability in mouse at 1 mg/kg by LC-MS/MS analysis; type: ADME, organism-based; settings: in vivo
[28] = AUCinfinity in cynomolgus monkey at 1 mg/kg, iv by LC-MS/MS analysis; type: ADME, organism-based, Macaca fascicularis; settings: in vivo
[29] = Clearance in cynomolgus monkey at 1 mg/kg, iv by LC-MS/MS analysis; type: ADME, organism-based, Macaca fascicularis; settings: in vivo
[30] = Unbound clearance in cynomolgus monkey at 1 mg/kg, iv by LC-MS/MS analysis; type: ADME, organism-based, Macaca fascicularis; settings: in vivo
[31] = Volume of distribution at steady state in cynomolgus monkey at 1 mg/kg, iv by LC-MS/MS analysis; type: ADME, organism-based, Macaca fascicularis; settings: in vivo, read-out: Vdss
[32] = Half life in cynomolgus monkey at 1 mg/kg, iv by LC-MS/MS analysis; type: ADME, organism-based, Macaca fascicularis; settings: in vivo
[33] = Tmax in cynomolgus monkey at 1 mg/kg, po by LC-MS/MS analysis; type: ADME, organism-based, Macaca fascicularis; settings: in vivo
[34] = Oral bioavailability in cynomolgus monkey at 1 mg/kg by LC-MS/MS analysis; type: ADME, organism-based, Macaca fascicularis; settings: in vivo
[35] = AUCinfinity in dog at 1 mg/kg, iv by LC-MS/MS analysis; type: ADME, organism-based, Canis lupus familiaris; settings: in vivo
[36] = Clearance in dog at 1 mg/kg, iv by LC-MS/MS analysis; type: ADME, organism-based, Canis lupus familiaris; settings: in vivo
[37] = Unbound clearance in dog at 1 mg/kg, iv by LC-MS/MS analysis; type: ADME, organism-based, Canis lupus familiaris; settings: in vivo
[38] = Volume of distribution at steady state in dog at 1 mg/kg, iv by LC-MS/MS analysis; type: ADME, organism-based, Canis lupus familiaris; settings: in vivo, read-out: Vdss
[39] = Half life in dog at 1 mg/kg, iv by LC-MS/MS analysis; type: ADME, organism-based, Canis lupus familiaris; settings: in vivo
[40] = Tmax in dog at 1 mg/kg, po by LC-MS/MS analysis; type: ADME, organism-based, Canis lupus familiaris; settings: in vivo
[41] = Oral bioavailability in dog at 1 mg/kg by LC-MS/MS analysis; type: ADME, organism-based, Canis lupus familiaris; settings: in vivo
[42] = Free drug level in male C57BL/6 mouse plasma at 10 mg/kg, po qd measured on 3 to 7 days; type: ADME, organism-based; settings: in vivo, time 3-7 day

With CCOc1cc2nc(C[C@@H]3CCOC3)cn2cc1NC(=O)c1cccc(C(F)F)n1 the CLint scaled [1] was 62 mL/min/kg, the CLint scaled [2] was 171 mL/min/kg and the efflux ratio at 2 h, 1 µM (MDR1 (P-gp)) was 1.5. The Kp uu [3] was 0.9, the Drug metabolism [4] was “Metabolite_Detected” and the Drug metabolism [5] was “Metabolite_Detected”. The IC50 [6] was 0.9 nM.
Compound Cc1cnc2c(NC(=O)c3cn4cc(C56COC(C)(C5)C6)nc4nc3OC(C)C)cnn2c1 has a CLint scaled [1] of under 5 mL/min/kg, a CLint scaled [7] of 2.5 mL/min/kg and a clearance [8] of 2.1 mL/min/kg. The CL free [9] was 30 mL/min/kg, the inhibition (Mus musculus [10]) was “Dose-Dependent Effect” and the inhibition (Mus musculus [11]) was “Dose-Dependent Effect”. The inhibition (Mus musculus [12]) was “Dose-Dependent Effect”, the IC50 ([13]; Homo sapiens, Blood) was 200 nM and the fIC50 ([13]; time 5 hrs) was 13 nM. It also gave a logD [14] of 2.9, an Activity [15] of over 80% and an AUC(0-inf) [16] of 6530 ng·h/mL. It also gave a Vd [17] of 2.2 L/kg, a half-life [18] of 12 h and a Tmax [19] of 4.7 h. The bioavailability [20] was 91%, the AUC(0-inf) [21] was 9460 ng·h/mL and the clearance [22] was 1.8 mL/min/kg. It also gave a CL free [23] of 19 mL/min/kg, a Vd [24] of 0.75 L/kg and a half-life [25] of 5 h. The Tmax [26] was 1 h, the bioavailability [27] was 98% and the AUC(0-inf) [28] was 6440 ng·h/mL. The clearance [29] was 2.7 mL/min/kg, the CL free [30] was 14 mL/min/kg and the Vd [31] was 1.7 L/kg. The half-life [32] was 8.3 h, the Tmax [33] was 2 h and the bioavailability [34] was 95%. For the same compound, the AUC(0-inf) [35] was 3190 ng·h/mL, the clearance [36] was 3.5 mL/min/kg and the CL free [37] was 5.3 mL/min/kg. The Vd [38] was 2.8 L/kg, the half-life [39] was 10 h and the Tmax [40] was 2.6 h. The bioavailability [41] was 96% and the “Cp(f)” value [42] was 10 nM.
